Assay results from PMC6273687, “Design, Synthesis and Biological Evaluation of Novel Primaquine-Cinnamic Acid Conjugates of the Amide and Acylsemicarbazide Type” (Molecules, 2016).

Legend:
[1] = Inhibition of linoleic acid peroxidation (AAPH-induced); conditions: 5 × 10^−5 M
Method: For initiating the lipid peroxidation free radical AAPH was used. Final solution in the UV cuvette consisted of 10 μL linoleate sodium solution (c = 16 mM), 0.93 mL phosphate buffer (c = 0.05 M), pH 7.4, thermostated at 37 °C. 50 μL AAPH solution (c = 40 mM) and 10 μL of the tested compounds were added. The experiment was performed at 37 °C under air. The oxidation of linoleic acid sodium salt was monitored at 234 nm. The assays were repeated at least in triplicate and the standard deviation of absorbance was less than 10% of the mean. Trolox was used under the same experimental conditions as a reference compound.

[2] = test system: SW 620 colon carcinoma cell line; assay: Growth inhibition of tumor cell lines in vitro (MTT / cell counting); type: cell-based; conditions: Homo sapiens, 72 h; SW 620, 3 days
Method: (§1) The experiments were carried out on a murine lymphocytic leukemia cell line (L1210) and five human tumor cell lines: CEM, HeLa, NCI-H460, SW 620 and MCF-7. The cells were cultured as monolayers and maintained in Dulbecco′s modified Eagle medium (DMEM) supplemented with 10% fetal bovine serum (FBS), 2 mM L-glutamine, 100 U/mL penicillin and 100 μg/mL streptomycin in a humidified atmosphere with 5% CO2 at 37 °C.
(§2) The growth inhibition activity of the compounds was assessed as described previously. The cell lines were inoculated onto a series of standard 96-well microtiter plates on day 0, at 1.5 × 10^4 cells/mL (SW 620, H460) to 2.5 × 10^4 cells/mL (MCF-7, CEM and L1210), depending on the growth of the tumor cell line. Test agents were then added in ten-fold dilutions (10^−8 to 10^−4 M) and the cell cultures were then incubated for 3–4 days with 5% CO2 at 37 °C. Working dilutions of the compounds were freshly prepared on the day of testing.
(§3) After 3 (MCF-7, SW 620, NCI-H460) or 4 days (CEM, L1210), the cell growth rate was evaluated first light microscopically, then by viable cell counting and/or by performing the MTT assay, which detects dehydrogenase activity in live, not dead, cells. The absorbance (A) was measured on a microplate reader at 570 nm. The absorbance is directly proportional to the number of living, metabolically active cells. […] If however, all of the tested concentrations produce PGs exceeding the respective reference level of effect (e.g., PG value of 50), then the highest tested concentration is assigned as the default value, which is preceded by a “>” sign. Minimum two individual experiments were carried out and each test point was performed in quadruplicate.

[3] = test system: CEM acute lymphoblastic leukemia cell line; assay: as above; type: cell-based; conditions: Homo sapiens, 96 h, 4 days
Method: as §1, §2, §3

[4] = test system: HeLa cervical carcinoma cell line; assay: as above; type: cell-based; conditions: Homo sapiens
Method: as §1, §2, §3

[5] = test system: L1210 murine lymphocytic leukemia cell line; assay: as above; type: cell-based; conditions: Mus musculus, 96 h; L1210, 4 days
Method: as §1, §2, §3

[6] = target: T1, soybean lipoxygenase (LOX) (Glycine max, UniProt P08170); assay: LOX inhibition study in vitro; type: biochemical; conditions: for inhibition at 100 µM: 1 × 10^−4 M
T1 construct: purchased Sigma-Aldrich
T1 sequence (P08170 1-839): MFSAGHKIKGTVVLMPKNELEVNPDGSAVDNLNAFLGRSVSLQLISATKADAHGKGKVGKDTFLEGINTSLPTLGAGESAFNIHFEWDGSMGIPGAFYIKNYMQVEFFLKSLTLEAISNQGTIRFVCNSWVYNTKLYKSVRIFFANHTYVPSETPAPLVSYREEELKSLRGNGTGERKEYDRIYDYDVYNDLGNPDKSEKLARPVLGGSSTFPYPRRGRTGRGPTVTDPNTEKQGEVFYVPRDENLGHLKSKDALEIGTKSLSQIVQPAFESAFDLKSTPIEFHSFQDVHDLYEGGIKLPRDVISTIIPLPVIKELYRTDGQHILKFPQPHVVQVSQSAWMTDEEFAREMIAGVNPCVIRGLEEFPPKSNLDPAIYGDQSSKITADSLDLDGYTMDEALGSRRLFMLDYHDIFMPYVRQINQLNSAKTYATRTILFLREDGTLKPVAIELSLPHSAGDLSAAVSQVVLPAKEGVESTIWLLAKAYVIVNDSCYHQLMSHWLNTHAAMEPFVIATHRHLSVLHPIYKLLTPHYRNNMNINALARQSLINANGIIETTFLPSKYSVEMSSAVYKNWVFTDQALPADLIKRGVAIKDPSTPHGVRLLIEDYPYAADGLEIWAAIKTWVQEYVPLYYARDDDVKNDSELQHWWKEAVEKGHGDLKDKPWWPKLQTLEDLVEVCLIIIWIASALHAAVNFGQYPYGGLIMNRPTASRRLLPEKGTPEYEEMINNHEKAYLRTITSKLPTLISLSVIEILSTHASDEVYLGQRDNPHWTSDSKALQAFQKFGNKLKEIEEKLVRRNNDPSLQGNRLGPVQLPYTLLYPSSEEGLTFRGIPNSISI
Method: LOX inhibitory assay in vitro was accomplished as described previously. The test compounds (stock solutions 10 mM in DMSO) were incubated at room temperature with sodium linoleate (c = 0.1 mM) and 0.2 mL of LOX enzyme solution (1/9 × 10^−4 m/V in saline). The conversion of sodium linoleate to 13-hydroperoxylinoleic acid was measured at 234 nm and compared with the reference inhibitor. Several concentrations were used for the IC50 determination.

[7] = test system: MCF-7 breast carcinoma cell line; assay: Growth inhibition of tumor cell lines in vitro (MTT / cell counting); type: cell-based, human; conditions: Homo sapiens, MCF7, 72 h; MCF-7, 3 days
Method: as §1, §2, §3

[8] = test system: NCI-H460 lung carcinoma cell line; assay: as above; type: cell-based, human; conditions: Homo sapiens, 72 h; NCI-H460, 3 days
Method: as §1, §2, §3

[9] = Interaction with the stable radical DPPH (reducing ability)
Method: To a solution of DPPH in absolute ethanol the appropriate volume of the compounds (50 or 100 µM final concentrations) dissolved in DMSO was added. The absorbance was recorded at 517 nm after 20 and 60 min at room temperature. The experiments were repeated at least in triplicate and the standard deviation of absorbance was less than 10% of the mean. NDGA was used under the same experimental conditions as a reference compound.

Compound	LP Inhibition (%) [1] [%]	IC50 [2] [µM]	IC50 [3] [µM]	IC50 [4] [µM]	IC50 [5] [µM]	inhibition at 100 µM [6] [%]	IC50 [7] [µM]	IC50 [8] [µM]	DPPH-reducing ability RA (%) ([9]; 1 × 10^−4 M, 20 min)	DPPH-reducing ability RA (%) ([9]; 1 × 10^−4 M, 60 min)	DPPH-reducing ability RA (%) ([9]; 5 × 10^−5 M, 20 min)	DPPH-reducing ability RA (%) ([9]; 5 × 10^−5 M, 60 min)	IC50 ([6]; values in parentheses in Table 3) [µM]
COc1cc(NC(C)CCCNC(=O)/C(C)=C/c2ccccc2)c2ncccc2c1 (stereo not drawn) [3b, (E)-N-(4-(6-Methoxyquinolin-8-ylamino)pentyl)-2-methyl-3-phenylacrylamide]	79	> 100	55 ± 6	106 ± 26	51	14	9.4 ± 0.2	> 100	5	37	2	2	
COc1cc(NC(C)CCCNC(=O)/C=C/c2ccccc2)c2ncccc2c1 (stereo not drawn) [3a, (E)-N-(4-(6-Methoxyquinolin-8-ylamino)pentyl)-3-phenylacrylamide]	44	23 ± 9	27 ± 4	4 ± 0.9	52 ± 3	19	24 ± 5	> 1	53	33	16	20	
COc1cc(NC(C)CCCNC(=O)/C=C/c2cccc(C(F)(F)F)c2)c2ncccc2c1 (stereo not drawn) [3i]	32	64 ± 41	41 ± 15	112 ± 11	68 ± 2	19	11 ± 2	> 100		8		13	
CC(Cc1ccc(O)c(O)c1)C(C)Cc1ccc(O)c(O)c1 (stereo not drawn) [NDGA, nordihydroguaiaretic acid, reference compound]									89	94	83	87	
COc1ccc(/C=C/C(=O)NCCCC(C)Nc2cc(OC)cc3cccnc23)cc1 (stereo not drawn) [3c, (E)-3-(4-Methoxyphenyl)-N-(4-(6-methoxyquinolin-8-ylamino)pentyl)acrylamide]	70	> 100	61 ± 30	> 125	106 ± 6	45	20 ± 3	> 100	40	43	22	27	
COc1cc(NC(C)CCCNC(=O)NNC(=O)/C=C/c2ccc(OC)c(OC)c2)c2ncccc2c1 (stereo not drawn) [7d, (E)-1-(3-(3,4-Dimethoxyphenyl)acryloyl)-4-(4-(6-methoxyquinolin-8-ylamino)pentyl)semicarbazide]	88	25 ± 9	93 ± 46	92 ± 30	40 ± 14		1.9 ± 1.8	32 ± 21	100	100	55	100	10
COc1cc(NC(C)CCCNC(=O)/C=C/c2ccc3c(c2)OCO3)c2ncccc2c1 (stereo not drawn) [3f, (E)-3-(Benzo[d][1,3]dioxo-5-yl)-N-(4-(6-methoxyquinolin-8-ylamino)pentyl)acrylamide]	87	> 100	37 ± 27	72 ± 57	59 ± 2	34	6.9 ± 1.3	> 100	11	33			
COc1cc(NC(C)CCCNC(=O)/C=C/c2cc(C(F)(F)F)cc(C(F)(F)F)c2)c2ncccc2c1 (stereo not drawn) [3k, (E)-3-(3,5-Bis(trifluoromethyl)phenyl)-N-[4-(6-methoxyquinolin-8-ylamino)pentyl]acrylamide]	65	> 100	68 ± 29	18 ± 1	92 ± 24	43	2.6 ± 0.5	> 100		50			
COc1cc(NC(C)CCCNC(=O)/C=C/c2ccccc2F)c2ncccc2c1 (stereo not drawn) [3h, (E)-3-(2-Fluorophenyl)-N-(4-(6-methoxyquinolin-8-ylamino)pentyl)acrylamide]	66	0.3 ± 0.1	18 ± 15	2.1 ± 2.1	66 ± 5	10	1.1 ± 0.6	> 100					
Cc1c(C)c2c(c(C)c1O)CCC(C)(C(=O)O)O2 (stereo not drawn) [Trolox, 6-hydroxy-2,5,7,8-tetramethylchroman-2-carboxylic acid, reference compound]	88												
